Experimental data published in patent US20070128217A1 (priority 2003, published 2007).

How the values were obtained:
[1] = test system: recombinant human anti-SARS-CoV antibody 03-018; type: binding; set-up: Binding of antibody 03-018 to linear peptides of the N protein of SARS-CoV Urbani / Binding of antibody 03-018 to looped/cyclic peptides of the N protein of SARS-CoV Urbani: unit not given here
[2] = test system: rabbit serum obtained by immunizing a rabbit with the SARS-CoV strain Frankfurt 1; type: binding; set-up: Binding of a rabbit serum to linear peptides / Binding of a rabbit serum to looped peptides / Rabbit serum linear peptides / Rabbit serum looped peptides / Binding of a rabbit serum to linear peptides of protein N of SARS-CoV Urbani (Rabbit serum linear peptides) / Binding of a rabbit serum to looped/cyclic peptides of protein N of SARS-CoV Urbani (Rabbit serum looped peptides): unit not given here
[3] = test system: control sera (pooled serum of ten healthy LUMC hospital workers; commercial negative donor pooled serum from the Dutch bloodbank); type: binding, human; set-up: Binding of Control serum LUMC to linear peptides / Binding of Control serum Blood-bank to linear peptides / Binding of Control serum LUMC to looped peptides / Binding of Control Serum Blood-Bank to Looped peptides / Binding of Control serum LUMC to linear peptides of the protein M of SARS-CoV Urbani / Binding of Control serum Blood-bank to linear peptides of the protein M of SARS-CoV Urbani / Binding of Control serum LUMC to looped peptides of the protein M of SARS-CoV Urbani / Binding of Control Serum Blood-Bank to Looped peptides of the protein M of SARS-CoV Urbani: unit not given here
[4] = test system: antibodies in sera from SARS patients (sera 1a, 1b, 2, 6, 37, 62, London, SARS-yellow, SARS-green); type: binding, human; set-up: Binding of serum 6 to linear peptides of protein X1 of SARS-CoV Urbani / Binding of serum 37 to linear peptides of protein X1 of SARS-CoV Urbani / Binding of serum 6 to looped/cyclic peptide (PEPSCAN-ELISA) / Binding of serum 37 to looped/cyclic peptide (PEPSCAN-ELISA) / Binding of serum 37 to looped/cyclic peptides of protein X1 of SARS-CoV Urbani / Binding of serum 6 to linear peptides of protein X2 / Binding of serum 37 to linear peptides of protein X2 / Binding of serum 37 to looped/cyclic peptides of protein X2 of SARS-CoV Urbani / Binding of serum 6 to linear peptides of protein M of SARS-CoV Urbani / Binding of serum 37 to linear peptides of protein M of SARS-CoV Urbani / Binding of serum 6 to looped/cyclic peptides of protein M of SARS-CoV Urbani / Binding of serum 37 to looped/cyclic peptides of protein M of SARS-CoV Urbani / Binding of serum 6 to linear peptides of protein X3 of SARS-CoV Urbani / Binding of serum 37 to linear peptides of protein X3 of SARS-CoV Urbani / Binding of serum 37 to looped/cyclic peptides of protein X3 of SARS-CoV Urbani / Binding of serum 6 to linear peptides of protein X4 of SARS-CoV Urbani / Binding of serum 37 to linear peptides of protein X4 of SARS-CoV Urbani / Binding of serum 37 to looped/cyclic peptides of protein X4 of SARS-CoV Urbani / Binding of serum 6 to linear peptides of protein X5 of SARS-CoV Urbani / Binding of serum 37 to linear peptides of protein X5 of SARS-CoV Urbani / Binding of serum 37 to looped/cyclic peptides of protein X5 of SARS-CoV Urbani / Binding of serum 6 to linear peptides of protein N of SARS-CoV Urbani / Binding of serum 37 to linear peptides of protein N of SARS-CoV Urbani / Binding of serum 6 to linear peptide (PEPSCAN-ELISA) / Binding of serum 1a to looped/cyclic peptides of protein N of SARS-CoV Urbani / Binding of serum 1b to looped/cyclic peptides of protein N of SARS-CoV Urbani / Binding of serum 2 to looped/cyclic peptides of protein N of SARS-CoV Urbani / Binding of serum 6 to looped/cyclic peptides of protein N of SARS-CoV Urbani / Binding of serum 37 to looped/cyclic peptides of protein N of SARS-CoV Urbani / Binding of serum 62 to looped/cyclic peptides of protein N of SARS-CoV Urbani / Binding of serum London to looped/cyclic peptides of protein N of SARS-CoV Urbani / Binding of serum SARS-green to looped/cyclic peptides of protein N of SARS-CoV Urbani: unit not given here

## GGRNGARPKQRRPQG
[1]
  Binding of antibody 03-018 to linear peptides of the N protein of SARS-CoV Urbani: 0.2
  Binding of antibody 03-018 to looped/cyclic peptides of the N protein of SARS-CoV Urbani: 0.2
[2]
  Binding of a rabbit serum to linear peptides of protein N of SARS-CoV Urbani (Rabbit serum linear peptides): 0.2
  Binding of a rabbit serum to looped/cyclic peptides of protein N of SARS-CoV Urbani (Rabbit serum looped peptides): 0.8
[3]
  Binding of Control Serum Blood-Bank to Looped peptides: 0.5
  Binding of Control serum Blood-bank to linear peptides: 0.7
  Binding of Control serum LUMC to linear peptides: 0.6
  Binding of Control serum LUMC to looped peptides: 0.5
[4]
  Binding of serum 1a to linear peptides of protein N of SARS-CoV Urbani: 0.3
  Binding of serum 1a to looped/cyclic peptides of protein N of SARS-CoV Urbani: 0.2
  Binding of serum 1b to linear peptides of protein N of SARS-CoV Urbani: 0.2
  Binding of serum 1b to looped/cyclic peptides of protein N of SARS-CoV Urbani: 0.1
  Binding of serum 2 to linear peptides of protein N of SARS-CoV Urbani: 0.3
  Binding of serum 2 to looped/cyclic peptides of protein N of SARS-CoV Urbani: 0.2
  Binding of serum 6 to linear peptides of protein N of SARS-CoV Urbani: 0.2
  Binding of serum 6 to looped/cyclic peptides of protein N of SARS-CoV Urbani: 0.2
  Binding of serum 37 to linear peptides of protein N of SARS-CoV Urbani: 0.7
  Binding of serum 37 to looped/cyclic peptides of protein N of SARS-CoV Urbani: 0.4
  Binding of serum 62 to linear peptides of protein N of SARS-CoV Urbani: 0.8
  Binding of serum 62 to looped/cyclic peptides of protein N of SARS-CoV Urbani: 0.3
  Binding of serum London to linear peptides of protein N of SARS-CoV Urbani: 0.5
  Binding of serum London to looped/cyclic peptides of protein N of SARS-CoV Urbani: 0.2
  Binding of serum SARS-green to linear peptides of protein N of SARS-CoV Urbani: 2.6
  Binding of serum SARS-green to looped/cyclic peptides of protein N of SARS-CoV Urbani: 0.2
  Binding of serum SARS-yellow to linear peptides of protein N of SARS-CoV Urbani: 0.6
  Binding of serum SARS-yellow to looped/cyclic peptides of protein N of SARS-CoV Urbani: 0.2

## GKEELRFPRGQGVPI
[1]
  Binding of antibody 03-018 to linear peptides of the N protein of SARS-CoV Urbani: 0.1
  Binding of antibody 03-018 to looped/cyclic peptides of the N protein of SARS-CoV Urbani: 0.3
[2]
  Binding of a rabbit serum to linear peptides of protein N of SARS-CoV Urbani (Rabbit serum linear peptides): 0.1
  Binding of a rabbit serum to looped/cyclic peptides of protein N of SARS-CoV Urbani (Rabbit serum looped peptides): 0.6
[3]
  Binding of Control Serum Blood-Bank to Looped peptides: 0.9
  Binding of Control serum Blood-bank to linear peptides: 0.9
  Binding of Control serum LUMC to linear peptides: 0.8
  Binding of Control serum LUMC to looped peptides: 0.9
[4]
  Binding of serum 1a to linear peptides of protein N of SARS-CoV Urbani: 0.3
  Binding of serum 1a to looped/cyclic peptides of protein N of SARS-CoV Urbani: 0.5
  Binding of serum 1b to linear peptides of protein N of SARS-CoV Urbani: 0.1
  Binding of serum 1b to looped/cyclic peptides of protein N of SARS-CoV Urbani: 0.4
  Binding of serum 2 to linear peptides of protein N of SARS-CoV Urbani: 0.3
  Binding of serum 2 to looped/cyclic peptides of protein N of SARS-CoV Urbani: 0.8
  Binding of serum 6 to linear peptides of protein N of SARS-CoV Urbani: 0.2
  Binding of serum 6 to looped/cyclic peptides of protein N of SARS-CoV Urbani: 0.3
  Binding of serum 37 to linear peptides of protein N of SARS-CoV Urbani: 0.7
  Binding of serum 37 to looped/cyclic peptides of protein N of SARS-CoV Urbani: 0.9
  Binding of serum 62 to linear peptides of protein N of SARS-CoV Urbani: 0.7
  Binding of serum 62 to looped/cyclic peptides of protein N of SARS-CoV Urbani: 1.1
  Binding of serum London to linear peptides of protein N of SARS-CoV Urbani: 0.5
  Binding of serum London to looped/cyclic peptides of protein N of SARS-CoV Urbani: 0.6
  Binding of serum SARS-green to linear peptides of protein N of SARS-CoV Urbani: 0.6
  Binding of serum SARS-green to looped/cyclic peptides of protein N of SARS-CoV Urbani: 0.9
  Binding of serum SARS-yellow to linear peptides of protein N of SARS-CoV Urbani: 0.6
  Binding of serum SARS-yellow to looped/cyclic peptides of protein N of SARS-CoV Urbani: 0.7

## GKGQQQQGQTVTKKS
[1]
  Binding of antibody 03-018 to linear peptides of the N protein of SARS-CoV Urbani: 0.1
  Binding of antibody 03-018 to looped/cyclic peptides of the N protein of SARS-CoV Urbani: 0.2
[2]
  Binding of a rabbit serum to linear peptides of protein N of SARS-CoV Urbani (Rabbit serum linear peptides): 0.2
  Binding of a rabbit serum to looped/cyclic peptides of protein N of SARS-CoV Urbani (Rabbit serum looped peptides): 0.4
[3]
  Binding of Control Serum Blood-Bank to Looped peptides: 0.6
  Binding of Control serum Blood-bank to linear peptides: 0.9
  Binding of Control serum LUMC to linear peptides: 1.0
  Binding of Control serum LUMC to looped peptides: 0.7
[4]
  Binding of serum 1a to linear peptide (PEPSCAN-ELISA): 0.3
  Binding of serum 1a to looped/cyclic peptides of protein N of SARS-CoV Urbani: 1.4
  Binding of serum 1b to linear peptide (PEPSCAN-ELISA): 0.1
  Binding of serum 1b to looped/cyclic peptides of protein N of SARS-CoV Urbani: 0.6
  Binding of serum 2 to linear peptide (PEPSCAN-ELISA): 0.3
  Binding of serum 2 to looped/cyclic peptides of protein N of SARS-CoV Urbani: 0.7
  Binding of serum 6 to linear peptide (PEPSCAN-ELISA): 0.3
  Binding of serum 6 to looped/cyclic peptides of protein N of SARS-CoV Urbani: 0.4
  Binding of serum 37 to linear peptide (PEPSCAN-ELISA): 0.7
  Binding of serum 37 to looped/cyclic peptides of protein N of SARS-CoV Urbani: 0.5
  Binding of serum 62 to linear peptide (PEPSCAN-ELISA): 0.7
  Binding of serum 62 to looped/cyclic peptides of protein N of SARS-CoV Urbani: 0.6
  Binding of serum London to linear peptide (PEPSCAN-ELISA): 0.5
  Binding of serum London to looped/cyclic peptides of protein N of SARS-CoV Urbani: 0.4
  Binding of serum SARS-green to linear peptide (PEPSCAN-ELISA): 0.2
  Binding of serum SARS-green to looped/cyclic peptides of protein N of SARS-CoV Urbani: 0.6
  Binding of serum SARS-yellow to linear peptide (PEPSCAN-ELISA): 0.7
  Binding of serum SARS-yellow to looped/cyclic peptides of protein N of SARS-CoV Urbani: 0.5
